Results: patent publication US12661431B2, “Pharmaceutical compositions for treating osteoarthritis” (INSIGNIA PHARMACEUTICALS, LLC, priority 2023, dated 2026)
Entries after “also recorded” stand apart in the source; their conditions may differ.

Assays:
[1] = test system: Osteoarthritic fibroblast-like chondrocytes; assay: MMP13 expression by real time RT-PCR in osteoarthritic fibroblast-like chondrocytes; type: cell-based; details: 0.1 percent hyaluronic acid and/or 0.1 micromolar dexamethasone
Protocol: Osteoarthritic fibroblast-like chondrocytes were cultured for 2 to 28 days in the presence of either 0.1 percent hyaluronic acid, 0.1 micromolar dexamethasone, or both 0.1 percent hyaluronic acid and 0.1 micromolar dexamethasone. Media was exchanged every 2-3 days. Chondrocytes cultured for 2 days, 14 days, or 28 days were analyzed by real time RT-PCR to assess matrix metallopeptidase 13 (MMP13) expression.

[2] = test system: Human osteoarthritic chondrocytes; assay: Immunostaining for SOX9, Col2a1 and ACAN of osteoarthritic chondrocytes cultured 24 days on HA hydrogel; type: cell-based
Excerpt: ACAN is an articular cartilage-specific proteoglycan that is important to the proper function and the load-bearing capacity of cartilage. Data is presented as the fluorescence of photographic images captured on an epifluorescent microscope for the ACAN signal (FU) normalized to the signal of 4′,6-diamidino-2-phenylindole (DAPI) nuclear stain, designated as FU/DAPI.
The chondrocytes were layered on top of an HA hydrogel (SYNVISC®, Sanofi-Aventis, United States). Following 24 days, the cells were fixed with paraformaldehyde and immunostained for SOX9, Col2a1, and ACAN.

[3] = test system: THP-1 macrophage-like cells; assay: Tetrazolium colorimetric cell count assay of THP-1 cultures on HA hydrogel; type: cell-based, human; details: addition of decanoic acid (1 millimolar) on HA hydrogel
Protocol: A colorimetric assay confirmed that the inhibition of IL-1beta release was not caused solely by reduced cell counts. Tetrazolium colorimetric dye was added to the cultures at the end of the experiment and cell counts were measured by optical density at 490 nanometers.

[4] = test system: THP-1 macrophage-like cells; assay: Colorimetric MTS cell density/viability assay, resting and activated THP-1 cultures; type: cell-based, human; details: 6 millimolar decanoic acid
Protocol: Then cell density was assessed in both resting and activated cultures using a colorimetric MTS assay with optical density at 490 nanometers (FIGS. 6A & 6B).

[5] = test system: Human osteoarthritic chondrocytes; assay: Microscopic examination of chondrocyte spheroid morphology on HA hydrogel; type: cell-based
Protocol: The chondrocytes were layered on top of an HA hydrogel (SYNVISC®, Sanofi-Aventis, United States). Following 20 days, hyaluronidase was added to release the cells from the hydrogel, the cells were collected, and total RNA was isolated.
Control chondrocytes established a monolayer on the bottom surface of their culture wells (FIG. 4A).

[6] = test system: THP-1 macrophage-like cells; assay: IL-1beta release (ELISA) from PMA-differentiated THP-1 cells activated with LPS then ATP; type: cell-based, human; details: 0.2 (0.19) to 6 millimolar; LPS 100 ng/mL 24 hours then 10 millimolar ATP 1 hour
Protocol: The human monocyte cell line THP-1 was differentiated into macrophage-like cells with PMA for 72 hours. […] Cells were then activated with 100 nanograms per milliliter lipopolysaccharide (LPS) for 24 hours followed by an additional hour with 10 millimolar adenosine triphosphate (ATP). LPS is a toll-like receptor 4 (TLR4) agonist, and ATP activates […] to promote inflammasome activity. The resulting IL-1beta release was quantified by enzyme-linked immunosorbent assay (ELISA).

[7] = test system: THP-1 macrophage-like cells; assay: IL-1beta release (ELISA) from PMA-differentiated THP-1 cells stimulated with CL075 with or without ATP; type: cell-based, human; details: 1 millimolar decanoic acid
Protocol: TLR7/8 agonists increase inflammasome activity and IL-1beta release through a different pathway relative to TLR4 agonists. To evaluate this response, THP-1 monocytic cells were differentiated to a macrophage-like state using PMA for 72 hours. […] To further activate the inflammasome, ATP was then added to the wells designated “second hit,” and the cultures were incubated for an additional hour. To indicated wells, hyaluronidase was added for 15 minutes, and all mediums harvested for IL-1beta ELISA quantification. Results are depicted in FIG. 7.

[8] = high-density monolayers, vehicle, 0.1, 0.5 and 1 millimolar decanoic acid

Structure (SMILES)	Change in MMP13 expression at day 2 [1]	Change in MMP13 expression at day 14 [1]	Change in MMP13 expression at day 28 [1]	spheroid development or condensation ([2]; 1 millimolar decanoic acid, 24 days on HA hydrogel)	concentration of peak Col2a1 staining ([2]; high-density monolayers) [millimolar]	punctate staining for Col2a1 [2, 8]	staining for aggrecan (ACAN) [2, 8]	nuclear staining for SOX9 ([2]; high-density monolayers, vehicle, 0.1, 0.5 and 1 millimolar decanoic acid, 24 days on HA hydrogel)	punctate immunostaining for Col2a1 ([2]; low-density monolayers, 1 millimolar decanoic acid)	intracellular staining for ACAN (FU/DAPI, FIG. 1) ([2]; low-density monolayers, increasing millimolar concentrations, strongest at 1 millimolar)	ACAN immunostaining of chondrocyte spheroids ([2]; spheroids on HA hydrogels, 1 millimolar decanoic acid)	decrease in optical density at 490 nanometers (cell counts) ([3]; CL075, absence of ATP) [%]	decrease in optical density at 490 nanometers (cell counts) ([3]; CL075, presence of ATP) [%]	cell density / viability (MTS, OD 490 nanometers) [4]	spheroid morphology after 4 days of culture ([5]; 4 days on HA hydrogel, with vs without decanoic acid)	spheroid morphology after 20 days of culture ([5]; 20 days on HA hydrogel, 1 millimolar decanoic acid vs without)	inhibition of inflammasome-IL-1beta release [6]	decrease concentration of IL-1beta ([7]; CL075 24 hours then ATP 1 hour (second hit)) [%]	decrease concentration of IL-1beta ([7]; CL075 24 hours, absence of ATP (first hit)) [%]
C[C@@H]1C[C@H]2[C@@H]3CCC4=CC(=O)C=C[C@]4(C)[C@@]3(F)[C@@H](O)C[C@]2(C)[C@@]1(O)C(=O)CO [dexamethasone]	0	−399	−4	–	–	–	–	–	–	–	–	–	–	–	–	–	–	–	–
CCCCCCCCCC(=O)O [decanoic acid]	–	–	–	enhanced spheroid development or condensation	0.5	dose-dependent punctate staining for Col2a1	dose-dependent increase in staining for aggrecan	enhanced nuclear staining for SOX9 in a dose-dependent manner	strong punctate immunostaining for Col2a1	dose-dependent increase in aggrecan (ACAN) immunofluorescence staining; also recorded: dose-dependent intracellular staining for ACAN	strong ACAN immunostaining	18	25	significant decrease in viability; also recorded: unfavorable effect on cell density	the spheroids generated interconnected networks; also recorded: promoted interconnected networks of spheroids	increased condensation and the development of large spheroids; also recorded: large spheroid development or condensation	dose-dependent inhibition of IL-1beta concentrations; also recorded: dose-dependent inhibition of inflammasome-IL-1beta release	91	77
